Common to all, as to assay: radiometric filter-binding kinase assay, Kinaseprofiler
For assay [1], the system named is HIPK2 (human), Q9H2X6 [I471N]. To be noted: ATP 10 µM.
Assay [2] has as its system BLK (human), P51451 [M278V]. To be noted: ATP 45 µM.
The test system of assay [3] is FLT4 (human), P35916 [V1128L/H1146R]. To be noted: ATP 200 µM.
The subject of assay [4] is MET (human), P08581 [A1209G/V1290L]. To be noted: ATP 45 µM.
The test system of assay [5] is PAK2 (human), Q13177 [L150F, P225T, V383I; A339 del]. To be noted: ATP 90 µM.
Chain of PAK2 (human), Q13177 [L150F, P225T, V383I; A339 del] (Q13177 whole entry, looked up, stated change not applied): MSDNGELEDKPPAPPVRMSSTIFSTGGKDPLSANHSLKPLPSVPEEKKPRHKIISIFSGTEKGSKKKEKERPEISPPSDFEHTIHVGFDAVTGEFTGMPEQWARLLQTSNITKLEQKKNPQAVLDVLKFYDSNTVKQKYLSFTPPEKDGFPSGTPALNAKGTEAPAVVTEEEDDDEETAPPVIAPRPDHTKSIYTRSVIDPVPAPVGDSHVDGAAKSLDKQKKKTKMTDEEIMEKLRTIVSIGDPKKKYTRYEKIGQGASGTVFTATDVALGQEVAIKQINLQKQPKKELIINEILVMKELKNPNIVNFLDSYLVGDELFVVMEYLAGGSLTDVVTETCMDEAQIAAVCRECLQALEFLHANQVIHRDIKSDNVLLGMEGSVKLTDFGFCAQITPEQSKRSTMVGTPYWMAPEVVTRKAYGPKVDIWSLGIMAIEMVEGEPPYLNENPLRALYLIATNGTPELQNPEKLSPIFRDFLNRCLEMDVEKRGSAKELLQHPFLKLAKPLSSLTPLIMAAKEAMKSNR
Assay [6] concerns PRKD1 (human), Q15139 [R135A]. To be noted: ATP 45 µM.
Chain of PRKD1 (human), Q15139 [R135A] (Q15139 whole entry, looked up, stated change not applied): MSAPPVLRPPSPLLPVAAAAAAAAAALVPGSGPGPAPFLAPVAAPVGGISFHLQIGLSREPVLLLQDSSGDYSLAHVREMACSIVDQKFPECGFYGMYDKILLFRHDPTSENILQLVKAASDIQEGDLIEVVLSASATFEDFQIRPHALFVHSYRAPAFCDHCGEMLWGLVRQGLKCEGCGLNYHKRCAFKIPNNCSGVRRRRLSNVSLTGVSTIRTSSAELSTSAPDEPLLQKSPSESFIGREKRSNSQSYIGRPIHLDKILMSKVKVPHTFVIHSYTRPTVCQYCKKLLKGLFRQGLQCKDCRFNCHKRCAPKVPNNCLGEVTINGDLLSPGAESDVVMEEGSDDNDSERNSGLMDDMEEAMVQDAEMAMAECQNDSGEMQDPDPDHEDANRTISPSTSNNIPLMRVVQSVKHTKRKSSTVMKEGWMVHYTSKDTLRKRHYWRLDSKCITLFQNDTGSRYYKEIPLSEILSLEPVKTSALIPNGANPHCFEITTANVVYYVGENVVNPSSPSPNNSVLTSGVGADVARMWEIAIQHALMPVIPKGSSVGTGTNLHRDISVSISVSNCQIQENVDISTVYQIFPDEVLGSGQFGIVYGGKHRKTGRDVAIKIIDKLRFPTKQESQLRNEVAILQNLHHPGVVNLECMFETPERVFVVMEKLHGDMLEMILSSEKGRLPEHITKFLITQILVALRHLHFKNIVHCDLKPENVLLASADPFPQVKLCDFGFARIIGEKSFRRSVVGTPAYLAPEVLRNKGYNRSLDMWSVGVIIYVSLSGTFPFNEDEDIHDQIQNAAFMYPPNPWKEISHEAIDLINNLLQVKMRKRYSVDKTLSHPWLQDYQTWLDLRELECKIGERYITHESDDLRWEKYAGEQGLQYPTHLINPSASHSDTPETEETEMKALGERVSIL
For assay [7], the system named is TGFBR1 (human), P36897 [T204D]. To be noted: ATP 10 µM.
Chain of TGFBR1 (human), P36897 [T204D] (P36897 whole entry T204D, looked up): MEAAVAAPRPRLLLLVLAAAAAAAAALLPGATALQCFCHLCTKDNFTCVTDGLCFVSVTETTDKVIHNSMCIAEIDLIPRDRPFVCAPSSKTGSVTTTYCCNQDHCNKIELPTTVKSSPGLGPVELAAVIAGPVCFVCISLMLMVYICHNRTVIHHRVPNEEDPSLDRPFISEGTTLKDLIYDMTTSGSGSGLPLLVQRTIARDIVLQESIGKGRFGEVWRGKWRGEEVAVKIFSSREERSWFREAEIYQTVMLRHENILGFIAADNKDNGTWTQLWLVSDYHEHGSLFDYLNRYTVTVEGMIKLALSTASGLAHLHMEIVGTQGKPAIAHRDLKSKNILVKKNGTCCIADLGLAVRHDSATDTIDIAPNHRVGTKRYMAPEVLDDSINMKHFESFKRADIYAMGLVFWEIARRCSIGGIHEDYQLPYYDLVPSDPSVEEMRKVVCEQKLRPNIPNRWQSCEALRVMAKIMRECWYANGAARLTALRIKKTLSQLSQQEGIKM

Among the data in the kinase profiling compilation of Christmann-Franck et al. (2016) are residual activity values, retold here.

Chain of FLT4 (human), P35916 [V1128L/H1146R] (P35916 whole entry, looked up, stated change not applied): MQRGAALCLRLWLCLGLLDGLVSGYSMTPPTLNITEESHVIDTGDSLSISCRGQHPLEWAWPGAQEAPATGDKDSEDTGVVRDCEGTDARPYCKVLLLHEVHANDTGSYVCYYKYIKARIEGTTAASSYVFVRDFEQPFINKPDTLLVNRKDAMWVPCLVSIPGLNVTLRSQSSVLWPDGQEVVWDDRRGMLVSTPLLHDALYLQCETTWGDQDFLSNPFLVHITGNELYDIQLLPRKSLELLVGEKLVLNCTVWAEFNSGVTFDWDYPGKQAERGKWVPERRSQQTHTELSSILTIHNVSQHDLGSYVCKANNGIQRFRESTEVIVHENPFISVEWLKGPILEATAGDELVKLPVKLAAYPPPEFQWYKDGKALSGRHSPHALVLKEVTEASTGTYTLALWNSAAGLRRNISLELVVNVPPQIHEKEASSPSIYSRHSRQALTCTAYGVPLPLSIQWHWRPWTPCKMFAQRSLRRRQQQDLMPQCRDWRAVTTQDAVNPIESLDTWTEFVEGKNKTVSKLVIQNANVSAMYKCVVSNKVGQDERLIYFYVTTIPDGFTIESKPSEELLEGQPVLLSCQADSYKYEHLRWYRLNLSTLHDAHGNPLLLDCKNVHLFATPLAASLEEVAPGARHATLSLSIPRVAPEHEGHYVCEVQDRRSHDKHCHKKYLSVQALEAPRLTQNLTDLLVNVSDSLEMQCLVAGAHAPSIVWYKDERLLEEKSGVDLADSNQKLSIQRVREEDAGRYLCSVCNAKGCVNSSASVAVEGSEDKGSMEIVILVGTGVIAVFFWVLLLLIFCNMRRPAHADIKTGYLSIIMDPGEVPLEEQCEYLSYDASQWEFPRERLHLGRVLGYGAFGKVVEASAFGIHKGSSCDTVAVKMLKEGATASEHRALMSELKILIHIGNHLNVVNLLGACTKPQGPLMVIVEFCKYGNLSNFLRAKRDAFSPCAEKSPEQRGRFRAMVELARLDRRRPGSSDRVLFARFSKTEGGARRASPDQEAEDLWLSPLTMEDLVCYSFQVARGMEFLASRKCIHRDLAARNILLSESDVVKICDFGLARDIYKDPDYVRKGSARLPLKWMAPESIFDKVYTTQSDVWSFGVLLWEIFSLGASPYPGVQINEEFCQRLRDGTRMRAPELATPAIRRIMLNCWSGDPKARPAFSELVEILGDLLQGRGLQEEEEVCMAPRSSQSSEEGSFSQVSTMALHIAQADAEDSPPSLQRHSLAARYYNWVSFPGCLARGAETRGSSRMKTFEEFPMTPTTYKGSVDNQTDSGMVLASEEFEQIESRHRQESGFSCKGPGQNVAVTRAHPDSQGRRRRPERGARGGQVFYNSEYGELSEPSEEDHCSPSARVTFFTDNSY
Chain of BLK (human), P51451 [M278V] (P51451 whole entry, looked up, stated change not applied): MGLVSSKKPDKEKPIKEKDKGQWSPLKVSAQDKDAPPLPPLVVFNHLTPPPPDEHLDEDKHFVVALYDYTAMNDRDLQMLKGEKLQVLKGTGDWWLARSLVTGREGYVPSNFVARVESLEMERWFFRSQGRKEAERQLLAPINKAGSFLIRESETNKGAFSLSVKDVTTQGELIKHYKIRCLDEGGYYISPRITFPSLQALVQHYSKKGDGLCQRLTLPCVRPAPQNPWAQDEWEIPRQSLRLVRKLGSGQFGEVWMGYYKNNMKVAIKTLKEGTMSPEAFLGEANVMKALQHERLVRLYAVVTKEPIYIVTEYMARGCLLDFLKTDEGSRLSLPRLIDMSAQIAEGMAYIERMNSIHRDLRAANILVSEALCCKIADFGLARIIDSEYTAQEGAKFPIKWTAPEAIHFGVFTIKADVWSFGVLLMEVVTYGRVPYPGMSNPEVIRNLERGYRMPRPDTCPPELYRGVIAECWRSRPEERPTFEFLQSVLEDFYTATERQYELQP
Chain of HIPK2 (human), Q9H2X6 [I471N] (Q9H2X6 whole entry, looked up, stated change not applied): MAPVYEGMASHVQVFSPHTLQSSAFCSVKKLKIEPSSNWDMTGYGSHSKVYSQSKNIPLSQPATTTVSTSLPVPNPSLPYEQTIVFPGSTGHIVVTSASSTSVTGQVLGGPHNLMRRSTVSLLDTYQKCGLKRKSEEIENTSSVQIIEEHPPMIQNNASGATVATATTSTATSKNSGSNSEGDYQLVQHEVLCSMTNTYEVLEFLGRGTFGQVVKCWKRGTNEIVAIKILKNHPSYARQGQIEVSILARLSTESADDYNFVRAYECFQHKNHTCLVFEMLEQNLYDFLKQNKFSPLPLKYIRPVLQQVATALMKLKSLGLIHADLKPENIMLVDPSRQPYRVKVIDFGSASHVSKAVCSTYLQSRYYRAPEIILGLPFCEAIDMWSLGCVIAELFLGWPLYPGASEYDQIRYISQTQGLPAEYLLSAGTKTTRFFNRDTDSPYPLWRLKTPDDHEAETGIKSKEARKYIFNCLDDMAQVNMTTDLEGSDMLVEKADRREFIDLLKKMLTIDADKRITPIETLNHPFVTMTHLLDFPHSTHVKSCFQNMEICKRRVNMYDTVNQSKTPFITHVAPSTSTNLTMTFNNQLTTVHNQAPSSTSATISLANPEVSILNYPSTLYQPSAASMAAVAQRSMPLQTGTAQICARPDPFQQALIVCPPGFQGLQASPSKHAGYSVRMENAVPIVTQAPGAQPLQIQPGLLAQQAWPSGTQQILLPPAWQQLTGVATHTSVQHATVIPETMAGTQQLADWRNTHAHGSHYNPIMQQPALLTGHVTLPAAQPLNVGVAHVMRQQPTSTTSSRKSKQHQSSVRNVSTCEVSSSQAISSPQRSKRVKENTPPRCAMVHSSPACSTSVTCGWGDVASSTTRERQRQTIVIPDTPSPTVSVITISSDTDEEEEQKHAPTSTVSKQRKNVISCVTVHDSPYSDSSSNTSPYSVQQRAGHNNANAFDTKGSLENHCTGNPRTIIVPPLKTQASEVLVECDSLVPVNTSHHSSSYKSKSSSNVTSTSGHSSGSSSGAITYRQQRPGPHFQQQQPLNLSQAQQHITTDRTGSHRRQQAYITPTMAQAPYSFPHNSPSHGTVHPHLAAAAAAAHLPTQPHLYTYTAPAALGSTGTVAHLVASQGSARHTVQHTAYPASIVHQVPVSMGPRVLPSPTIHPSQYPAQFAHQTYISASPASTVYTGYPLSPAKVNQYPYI

With `CN[C@@H]1C[C@H]2O[C@@](C)([C@@H]1OC)n1c3ccccc3c3c4c(c5c6ccccc6n2c5c31)C(=O)NC4`, the residual activity (commonly the signal under treatment as a percentage of the control signal) in assay [1] (compound 1.0 µM) stood at 52%.
For `O=C1c2ccccc2-c2n[nH]c3cccc1c23`, the residual activity in assay [2] (compound 1.0 µM) turned out to be 97%; in assay [2] (compound 10.0 µM), 45%; in assay [3] (compound 1.0 µM) it was 2%; in assay [3] (compound 10.0 µM), 0%; in assay [1] (compound 1.0 µM), 55%; in assay [1] (compound 10.0 µM) it was 15%. Further, the residual activity in assay [4] (compound 1.0 µM) is 87%; in assay [4] (compound 10.0 µM) it was 75%; in assay [5] (compound 1.0 µM), 96%; in assay [5] (compound 10.0 µM), 86%; in assay [6] (compound 1.0 µM), 32%; in assay [6] (compound 10.0 µM), -1%. Moreover, the results for the residual activity in assay [7] (compound 1.0 µM) and in assay [7] (compound 10.0 µM) were 88% and 74%, respectively.
For `O=C1Nc2ccccc2/C1=C1\Nc2ccccc2\C1=N/O`, the residual activity is 11% in assay [2] (compound 1.0 µM); 0% in assay [2] (compound 10.0 µM); -1% in assay [3] (compound 1.0 µM); 1% in assay [3] (compound 10.0 µM); 48% in assay [1] (compound 1.0 µM); 8% in assay [1] (compound 10.0 µM). In addition, the residual activity in assay [4] (compound 1.0 µM) stood at 86%; in assay [4] (compound 10.0 µM), 13%; in assay [5] (compound 1.0 µM) it was 103%; in assay [5] (compound 10.0 µM) it was 54%; in assay [6] (compound 1.0 µM), 113%; in assay [6] (compound 10.0 µM), 65%. Moreover, the residual activity in assay [7] (compound 1.0 µM) came to 104%; in assay [7] (compound 10.0 µM) it was 73%.
`O=C(Nc1cccc(Nc2nccc(Nc3cccc(C(F)(F)F)c3)n2)c1)C1CC1`: the residual activity in assay [5] (compound 1.0 µM) was 100%.
